Test system: human retinal pigmented epithelial cells (ARPE-19)
Experiment: CCK-8 cell growth analysis in retinal pigmented epithelial cells
Format: cell-based
Settings: young vs senescent retinal pigmented epithelial cells; concentration-dependent
Method: Each cell was treated in a serum-free culture solution containing 0.5 μM doxorubicin for 4 hours. After washing the cells with a serum-free culture solution, the cells were cultured for 4 days in a culture solution containing 10% FBS, and then cellular aging was confirmed by staining with senescence-associated beta galactosidase (SAβG). After each sample was dissolved in DMSO, young cells, replicative senescent cells, and premature senescent cells treated with doxorubicin were treated with 100 nM zotarolimus, 100 nM rapamycin, 100 nM ABT263, respectively. After incubation for 4 days in a 37° C., 5% CO2 incubator, the degree of cell growth was confirmed by CCK-8 analysis, the degree of cellular aging was confirmed by senescence-related beta-galactosidase (SAβG) staining, Young cells (1×10^3 cells/well) or senescent cells (2×10^3 cells/well) were dispensed into a 96-well plate, and cultured overnight in a 37° C., 5% CO2 incubator. Zotarolimus, ABT263 and rapamycin were treated at each concentration, and then incubated for 4 days in a 37° C., 5% CO2 incubator. […] Then, the absorbance was measured at 450 nm using a microplate reader. The degree of cell growth was expressed as a relative value for the absorbance of the control group treated with only DMSO as 100%. […]

## CO[C@H]1C[C@@H]2CC[C@@H](C)[C@@](O)(O2)C(=O)C(=O)N2CCCC[C@H]2C(=O)O[C@H]([C@H](C)C[C@@H]2CC[C@H](n3cnnn3)[C@H](OC)C2)CC(=O)[C@H](C)/C=C(\C)[C@@H](O)[C@@H](OC)C(=O)[C@H](C)C[C@H](C)/C=C/C=C/C=C/1C [zotarolimus]
  cell growth with increasing concentrations of zotarolimus: significantly decreased in senescent cells compared to young cells

Reference: patent US20220023271A1, “COMPOSITION FOR PREVENTING OR TREATING CELLULAR SENESCENCE-RELATED DISEASES COMPRISING ZOTAROLIMUS AS ACTIVE INGREDIENT” (RESEARCH COOPERATION FOUNDATION OF YEUNGNAM UNIVERSITY, priority 2018, published 2022)
